In experiment [1] the target is T1, cMET enzyme (amino acids 1023-1360) (Homo sapiens, UniProt P08581).
T1 construct: The cMET enzyme (amino acids 1023-1360) nominally at 24 μM was held at −80° C. until use; His tag (N, cleaved yes); made in house; host or cells: Sf9 cells
In words: Determination of inhibition of cMET (capillary electrophoresis, phosphorylated peptide product). The format is biochemical. The conditions noted are these: 1.2 nM cMET, 50 μM ATP, 2 μM FL-2 peptide, 2 hours room temperature.

The test system of a further experiment is MKN45. The experiment is described as follows: Inhibition of cell viability (MTS), MKN45. The format is cell-based. To be noted: Homo sapiens, MKN-45, 96 h, MKN45 cells, 96 hours incubation. A digest of the protocol: (§1)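 Cells seeded at 2,000-7,500/well, attached ~24 h, then treated in duplicate with 1:2.5 serial dilutions at 0.5% final DMSO. Viability by MTS; EC50 from non-linear fit after background correction and normalisation to DMSO. MKN45 and EBC1 are cMET-dependent; A549 serves as negative control.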

The test system of another experiment is EBC1. In words: Inhibition of cell viability (MTS), EBC1. To be noted: Homo sapiens, EBC-1, 96 h, EBC1 cells, 96 hours incubation. The format is cell-based. A digest of the protocol: as §1
The next experiment concerns A549. In words: Inhibition of cell viability (MTS), A549 (negative control line). The format is cell-based. To be noted: Homo sapiens, A549, 96 h, A549 cells (negative control), 96 hours incubation. A digest of the protocol: as §1

T1 sequence (P08581 1023-1360): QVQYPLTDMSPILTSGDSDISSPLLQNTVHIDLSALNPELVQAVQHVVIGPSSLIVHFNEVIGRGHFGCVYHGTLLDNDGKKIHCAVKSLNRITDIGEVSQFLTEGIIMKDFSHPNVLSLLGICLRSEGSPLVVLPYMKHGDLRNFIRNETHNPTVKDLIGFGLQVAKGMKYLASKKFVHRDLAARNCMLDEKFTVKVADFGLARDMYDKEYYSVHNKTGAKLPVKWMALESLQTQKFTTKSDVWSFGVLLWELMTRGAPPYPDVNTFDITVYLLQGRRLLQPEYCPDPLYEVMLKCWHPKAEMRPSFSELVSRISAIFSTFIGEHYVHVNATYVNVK

As for `O=C(Nc1cn2nc(C(F)(F)c3nnc4ccc(-c5ccc(F)cc5)cn34)ccc2n1)C1CC1` [Compound 74, N-(6-(difluoro(6-(4-fluorophenyl)-[1,2,4]triazolo[4,3-a]pyridin-3-yl)methyl)imidazo[1,2-b]pyridazin-2-yl)cyclopropanecarboxamide], in experiment [1], the IC50 was less than 30 nM. The results for the EC50 in the experiment with MKN45, in the experiment on EBC1 and in the experiment with A549 were less than 30 nM, less than 30 nM and 8000 to 25000 nM, respectively.
The compound `COc1ccc(-c2ccc3nnc(C(F)(F)c4ccc5nc(NC(=O)C6CC6)cn5n4)n3c2)cc1` [Compound 75, N-(6-(difluoro(6-(4-methoxyphenyl)-[1,2,4]triazolo[4,3-a]pyridin-3-yl)methyl)imidazo[1,2-b]pyridazin-2-yl)cyclopropanecarboxamide] showed an IC50 in experiment [1] of less than 30 nM. The half-maximal effective concentration (EC50) was less than 30 nM with MKN45, less than 30 nM in the experiment with EBC1 and 8000 to 25000 nM with A549.
Consider `COc1cccc(-c2ccc3nnc(C(F)(F)c4ccc5nc(NC(=O)C6CC6)cn5n4)n3c2)c1` [Compound 76, N-(6-(difluoro(6-(3-methoxyphenyl)-[1,2,4]triazolo[4,3-a]pyridin-3-yl)methyl)imidazo[1,2-b]pyridazin-2-yl)cyclopropanecarboxamide], for which, in experiment [1], the IC50 was less than 30 nM. Also, the EC50 is less than 30 nM in the experiment with MKN45, less than 30 nM with EBC1 and greater than 50000 nM in the experiment on A549.
In turn, `O=C(Nc1cn2nc(C(F)(F)c3nnc4ccc(-c5cccc(F)c5)cn34)ccc2n1)C1CC1` [Compound 77, N-(6-(difluoro(6-(3-fluorophenyl)-[1,2,4]triazolo[4,3-a]pyridin-3-yl)methyl)imidazo[1,2-b]pyridazin-2-yl)cyclopropanecarboxamide] returned an IC50 in experiment [1] of less than 30 nM. Further, the EC50 in the experiment with MKN45 was less than 30 nM; in the experiment with EBC1, less than 30 nM; in the experiment on A549 it was greater than 50000 nM.
Compound `O=C(Nc1cn2nc(C(F)(F)c3nnc4ccc(-c5cccnc5)cn34)ccc2n1)C1CC1` [Compound 78, N-(6-(difluoro(6-(pyridin-3-yl)-[1,2,4]triazolo[4,3-a]pyridin-3-yl)methyl)imidazo[1,2-b]pyridazin-2-yl)cyclopropanecarboxamide] gave a half-maximal inhibitory concentration (IC50) in experiment [1] of 30 to 59 nM. For the same compound, the concentration for a half-maximal effect (EC50) is less than 30 nM with MKN45, less than 30 nM in the experiment with EBC1 and greater than 50000 nM with A549.
On to `O=C(Nc1cn2nc(C(F)(F)c3nnc4ccc(-c5ccncc5)cn34)ccc2n1)C1CC1` [Compound 79, N-(6-(difluoro(6-(pyridin-4-yl)-[1,2,4]triazolo[4,3-a]pyridin-3-yl)methyl)imidazo[1,2-b]pyridazin-2-yl)cyclopropanecarboxamide], for which, in experiment [1], the IC50 was in the range of 60 to 100 nM. Moreover, the figures for the EC50 with MKN45, in the experiment on EBC1 and with A549 were less than 30 nM, less than 30 nM and greater than 50000 nM, respectively.
`CC(C)c1ccc(-c2ccc3nnc(C(F)(F)c4ccc5nc(NC(=O)C6CC6)cn5n4)n3c2)cc1` [Compound 80, N-(6-(difluoro(6-(4-isopropylphenyl)-[1,2,4]triazolo[4,3-a]pyridin-3-yl)methyl)imidazo[1,2-b]pyridazin-2-yl)cyclopropanecarboxamide] returned an IC50 in experiment [1] of 30 to 59 nM. Besides, the figures for the EC50 in the experiment with MKN45, in the experiment with EBC1 and in the experiment with A549 were less than 30 nM, 30 to 59 nM and greater than 50000 nM, respectively.
`O=C(Nc1cn2nc(C(F)(F)c3nnc4ccc(-c5cc(F)cc(F)c5)cn34)ccc2n1)C1CC1` [Compound 81, N-(6-((6-(3,5-difluorophenyl)-[1,2,4]triazolo[4,3-a]pyridin-3-yl)difluoromethyl)imidazo[1,2-b]pyridazin-2-yl)cyclopropanecarboxamide]: the 50% inhibitory concentration (IC50) in experiment [1] was less than 30 nM. In addition, the EC50 is less than 30 nM in the experiment on MKN45, less than 30 nM in the experiment with EBC1 and greater than 50000 nM in the experiment on A549.
In experiment [1], `N#Cc1cccc(-c2ccc3nnc(C(F)(F)c4ccc5nc(NC(=O)C6CC6)cn5n4)n3c2)c1` [Compound 82, N-(6-((6-(3-cyanophenyl)-[1,2,4]triazolo[4,3-a]pyridin-3-yl)difluoromethyl)imidazo[1,2-b]pyridazin-2-yl)cyclopropanecarboxamide] showed a half-inhibitory concentration (IC50) of less than 30 nM. For the same compound, the concentration for a half-maximal effect (EC50) is less than 30 nM in the experiment with MKN45, less than 30 nM in the experiment on EBC1 and greater than 50000 nM in the experiment on A549.
For `N#Cc1ccc(-c2ccc3nnc(C(F)(F)c4ccc5nc(NC(=O)C6CC6)cn5n4)n3c2)cc1` [Compound 83, N-(6-((6-(4-cyanophenyl)-[1,2,4]triazolo[4,3-a]pyridin-3-yl)difluoromethyl)imidazo[1,2-b]pyridazin-2-yl)cyclopropanecarboxamide], the IC50 in experiment [1] is less than 30 nM. The EC50 was less than 30 nM in the experiment with MKN45, less than 30 nM in the experiment with EBC1 and greater than 50000 nM in the experiment with A549.
The compound `Cc1csc(-c2ccc3nnc(C(F)(F)c4ccc5nc(NC(=O)C6CC6)cn5n4)n3c2)c1` [Compound 84, N-(6-(difluoro(6-(4-methylthiophen-2-yl)-[1,2,4]triazolo[4,3-a]pyridin-3-yl)methyl)imidazo[1,2-b]pyridazin-2-yl)cyclopropanecarboxamide] showed an IC50 in experiment [1] of less than 30 nM. In addition, the EC50 in the experiment with MKN45 is less than 30 nM; in the experiment with EBC1, less than 30 nM; in the experiment with A549, greater than 50000 nM.
Compound `CS(=O)(=O)c1ccc(-c2ccc3nnc(C(F)(F)c4ccc5nc(NC(=O)C6CC6)cn5n4)n3c2)cc1` [Compound 85, N-(6-(difluoro(6-(4-(methylsulfonyl)phenyl)-[1,2,4]triazolo[4,3-a]pyridin-3-yl)methyl)imidazo[1,2-b]pyridazin-2-yl)cyclopropanecarboxamide] had an IC50 in experiment [1] of less than 30 nM. Further, the 50% effective concentration (EC50) in the experiment with MKN45 is less than 30 nM; in the experiment with EBC1, less than 30 nM; with A549, greater than 50000 nM.
Regarding `COc1ccc(-c2ccc3nnc(C(F)(F)c4ccc5nc(NC(=O)C6CC6)cn5n4)n3c2)cn1` [Compound 86, N-(6-(difluoro(6-(6-methoxypyridin-3-yl)-[1,2,4]triazolo[4,3-a]pyridin-3-yl)methyl)imidazo[1,2-b]pyridazin-2-yl)cyclopropanecarboxamide], in experiment [1], the IC50 fell in the range of 30 to 59 nM. Besides, the EC50 was less than 30 nM in the experiment with MKN45, less than 30 nM with EBC1 and greater than 50000 nM in the experiment with A549.
In experiment [1], `O=C(Nc1cn2nc(C(F)(F)c3nnc4ccc(-c5cncnc5)cn34)ccc2n1)C1CC1` [Compound 87, N-(6-(difluoro(6-(pyrimidin-5-yl)-[1,2,4]triazolo[4,3-a]pyridin-3-yl)methyl)imidazo[1,2-b]pyridazin-2-yl)cyclopropanecarboxamide] showed an IC50 of 100 to 249 nM. The figures for the EC50 in the experiment on MKN45, in the experiment with EBC1 and with A549 were 30 to 59 nM, 30 to 59 nM and greater than 50000 nM, respectively.
In experiment [1], `CS(=O)(=O)c1cccc(-c2ccc3nnc(C(F)(F)c4ccc5nc(NC(=O)C6CC6)cn5n4)n3c2)c1` [Compound 88, N-(6-(difluoro(6-(3-(methylsulfonyl)phenyl)-[1,2,4]triazolo[4,3-a]pyridin-3-yl)methyl)imidazo[1,2-b]pyridazin-2-yl)cyclopropanecarboxamide] registered an IC50 of less than 30 nM. Besides, the results for the EC50 in the experiment with MKN45, in the experiment with EBC1 and in the experiment with A549 were less than 30 nM, less than 30 nM and greater than 50000 nM, respectively.
In experiment [1], `NC(=O)c1cccc(-c2ccc3nnc(C(F)(F)c4ccc5nc(NC(=O)C6CC6)cn5n4)n3c2)c1` [Compound 90, 3-(3-((2-(cyclopropanecarboxamido)imidazo[1,2-b]pyridazin-6-yl)difluoromethyl)-[1,2,4]triazolo[4,3-a]pyridin-6-yl)benzamide] had an IC50 of less than 30 nM. Further, the EC50 in the experiment on MKN45 was less than 30 nM; in the experiment with EBC1 it was less than 30 nM; in the experiment on A549, greater than 50000 nM.

The record behind these values is patent US8178534B2, “cMET inhibitors” (Takeda Pharmaceutical Company Limited, priority 2008, dated 2012).
